# “Also recorded” adds a separate entry of the source.
# What was measured:
# [1] = system: HL-60 cells (NADPH oxidase / respiratory burst); test: O2- formation by DMSO-differentiated HL-60 cells, PMA-stimulated; type: cell-based; conditions: various concentrations
# Procedure: HL-60 cells were maintained in stationary culture in RPMI 1640 medium (Gibco, Grand Island, NY) containing 10% fetal bovine serum at 37° C in an atmosphere of 95 air and 5% CO2. The cells (about 8×10^5 /ml) were differentiated into neutrophil-like cells by treatment with 1.3% DMSO for six days (Harris, et al., J. Leukocyte Biol. 37: 407-422 (1985)). The cells were treated with the indicated levels of compactin or lovastatin by addition of a 1,000-fold concentrated stock solution to the appropriate concentration on day 4 of differentiation. […] In studies of the protective effect of mevalonic acid, the compound was added as the mevalonolactone (Sigma Chemical Co., St. Louis, MO) at a concentration of 1 mM to the cell culture on days 4 to 6. […]
# O2 --formation by HL-60 cells was assessed by the SOD-sensitive reduction of cytochrome c. […] Cytochrome c reduction at 550nm was continuously monitored and maximal rate and extent of the reaction calculated.
# NADPH oxidase = test: Cell-free oxidase system with compactin included in the assay cuvette; type: biochemical; conditions: 10 μM compactin in the assay cuvette
# Procedure: To assess O2 --formation using HL-60 membrane and cytosol, the cell-free system of Curnutte, et al. (Curnutte, et al., J. Biol. Chem. 262: 5563-5569 (1987); Curnutte, et al.,m J. Biol. Chem. 262: 6450-6452 (1987)) was utilized. Briefly, HL-60 membrane pellet (50-60μg) or human neutrophil membrane (6.35×10^6 cell equivalents) was added to a cuvette containing 100 μM cytochrome c (type III, Sigma Chemical Co., St. Louis, MO), 6.25 mM MgCl2, 93 mM KCl, 2.8 mM NaCl, 9.3 mM Pipes pH 7.3, 0.8mM ATP, 0.16 mM NADPH, 10 μM GTPgammaS, 225 μg HL-60 cytosol, or 250 μg ([…]; cell equivalents) of human neutrophil cytosol and ±300μg/ml SOD (Sigma Chemical Co., St. Louis, MO). After a three-minute equilibration at 25° C., the formation of O2 --was initiated by the addition of 100 μM SDS. O2 --generation was monitored continuously as the SOD-sensitive reduction of cytochrome c at 550 nm. Human neutrophil plasma membranes (gamma-GSP) and cytosol (GSS) were prepared as described in (Curnutte, et al., suora (1987)).
# Treatment of peripheral blood neutrophils with 10 μM compactin for up to two hours produced no effect upon the ability of these cells to support a respiratory burst in response to FMLP. […] It seems unlikely that both compounds would randomly produce similar nonspecific toxic effects on the NADPH oxidase.
# Rap1 = test: Metabolic labeling and immune precipitation of processed and unprocessed Rap1 in HL-60 cells; type: cell-based; conditions: various concentrations
# Procedure: Analysis of Rapl processing in HL-60 cells was performed by labeling cells (8×10^5 /ml) with 200μCi/ml ^35 S-Trans-label (ICN Biomedicals, Inc., Costa Mesa, CA) for 5 days during cell differentiation with 1.3% DMSO in Cys-Met-free medium containing 12% dialyzed fetal bovine serum. Various concentrations of compactin were included as indicated. Metabolically labeled cells were collected, washed once with isotonic NaCl, treated with 2.5 mM Hepes pH 7.5, 100 mM NaCl, 1 mM EDTA, 1 % Triton X-100, 2.5 μM PMSF, and 100U aprotonin. After a 15-minute incubation on ice, the cell lysates were pelleted in a microfuge for 2 minutes and then the supernatant was transferred to clean tubes containing 100 μl 4M NaCl, 5 μl 10% SDS, and 50 μl10% deoxycholate. The samples were boiled for two minutes, pelleted, and transferred to clean tubes containing 2 μl of the primary antibody, 142-24E05 (Chesa, et al., PNAS USA 84: 3234-3238 (1987); Bokoch, et al., J. Biol. Chem. 263: 16744-16749 (1988)). […]
# In untreated cells, Rapl was present largely in the membrane fraction, with very little Rapl in the cytosol. […] Isoprenylation of Rapl was also assessed by metabolic labeling of the HL-60 cells with immune precipitation of Rap1, and analysis of the 22kD processed and 23kD unprocessed forms of Rap1 (Buss, et al., Mol. Cell, Biol. 11: 1523-1527 (1991)).
smiles,measurement,setting,value
CC[C@H](C)C(=O)O[C@H]1CCC=C2C=C[C@H](C)[C@H](CC[C@@H]3C[C@@H](O)CC(=O)O3)[C@H]21 [compactin],inhibition of O2- formation in response to PMA,[1],loss in the ability of PMA to stimulate O2 --formation; also recorded: dose-dependent inhibition
same,"inhibition of O2- formation, cell-free",NADPH oxidase,did not inhibit
same,22 kD processed form of Rap1,Rap1,dose-dependent decrease
same,23 kD unprocessed form of Rap1,Rap1,proportional increase
